Measured values from patent US20240368122A1, “JAK2 INHIBITORS AND METHODS OF USE THEREOF” (RELAY THERAPEUTICS, INC., priority 2021, published 2024).
Read-outs that look alike come from different tables or passages of the source.

Legend:
[1] = target: T1, JAK2 JH2 WT (V536-D812) [W659A, W777A, F794H solubilizing mutations] (Homo sapiens, UniProt O60674, F794H/W659A/W777A); assay: Surface Plasmon Resonance (SPR) binding assay, JAK2 JH2 domain
T1 construct: **JAK2 JH2 WT (V536-D812) [W659A, W777A, F794H solubilizing mutations]; C-thrombin-avi-His6; thrombin cleavage site (C); His6 (C); purchased Biortus
T1 sequence (O60674 536-812 W659A/W777A/F794H): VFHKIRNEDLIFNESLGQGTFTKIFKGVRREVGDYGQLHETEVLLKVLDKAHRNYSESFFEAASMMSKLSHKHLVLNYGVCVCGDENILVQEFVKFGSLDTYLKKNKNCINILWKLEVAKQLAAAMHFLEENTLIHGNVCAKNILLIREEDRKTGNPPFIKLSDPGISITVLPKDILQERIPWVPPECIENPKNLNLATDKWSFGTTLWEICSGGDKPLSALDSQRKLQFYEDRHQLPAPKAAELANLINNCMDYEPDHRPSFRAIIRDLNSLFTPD
Summary of the method: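 Kinetics came from 1:1 fits of single-cycle runs at 20 °C: four 3-fold dilutions from 5 uM for JH1 or 500 nM for JH2, 60 s association, and 300 s or 1200 s dissociation respectively. Protein was freshly captured per compound in the presence of 10 uM stabilizer compound, with running buffer of pH 7.5 HEPES/NaCl/glycerol/DTT plus 2% DMSO.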

[2] = tested on: TF1 JAK2 V617F STAT3 reporter; assay: Cellular TF1 STAT3 assay (luciferase reporter), JAK2 V617F; type: cell-based; settings: read-out: Cell PD-TF1 JAK2 V617F STAT3 (IC50)
Summary of the method: (§1)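 Inhibition of JAK2 V617F-mediated STAT3/STAT5 signalling is measured by reporter luminescence in TF1 erythroleukemia cells treated overnight (18-20 h) with a 10-point compound series; DMSO serves as vehicle.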

[3] = tested on: TF1 JAK2 V617F STAT5 reporter; assay: Cellular TF1 STAT5 assay (luciferase reporter), JAK2 V617F; type: cell-based; settings: read-out: Cell PD TF1 V617F STAT5 (IC50)
Summary of the method: as §1

[4] = Homo sapiens, TF-1, TF1 cells, JAK2 V617F

Row | SMILES | Kd [1] [nM] | IC50 [2, 4] [nM] | IC50 [3, 4] [nM] | Kd ([1]; SPR, JAK2 JH2 domain) [nM] | IC50 ([2]; TF1 JAK2 V617F) [nM] | IC50 ([3]; TF1 JAK2 V617F) [nM]
1 | C=C(C)c1cccc(CN2CC(n3cc(-c4cccc(Nc5cc(NC(=O)C6CC6)nnc5C(=O)NC)c4OC)cn3)C2)n1 [Compound 367] | 0.01 to 10 | 50 to 500 | 50 to 500 |  |  | 
2 | CNC(=O)c1nnc(NC(=O)C2CC2)cc1Nc1cccc(-c2cnn(C3CN(Cc4cccc(C(=O)N(C)CCN)n4)C3)c2)c1OC [Compound 384] | 0.01 to 10 | 500 to 5000 | 500 to 5000 |  |  | 
3 | CNC(=O)c1nnc(NC(=O)C2CC2)cc1Nc1cccc(-c2cnn(C3CN(Cc4cccc(C(C)O)n4)C3)c2)c1OC (stereo not drawn) [Compound 306] | 0.01 to 10 | 50 to 500 | 50 to 500 |  |  | 
4 | CNC(=O)c1nnc(NC(=O)C2CC2)cc1Nc1cccc(-c2ccc(C3CN(Cc4cn(C)nc4C#N)C3)nc2)c1OC [Compound 293] | 50 to 500 | 500 to 5000 | 5000 to 100000 |  |  | 
5 | CNC(=O)c1nnc(NC(=O)C2CC2)cc1Nc1cccc(-c2ccc(C3CN(Cc4ccccn4)C3)nc2)c1OC [Compound 182] |  |  |  | 0.01 to 10 | 5000 to 100000 | 500 to 5000
6 | CNC(=O)c1nnc(NC(=O)C2CC2)cc1Nc1cccc(-c2ccc(C(=O)N(C)Cc3cn(C(F)F)nc3C)nc2)c1OC [Compound 297] | 0.01 to 10 | 50 to 500 | 50 to 500 |  |  | 
7 | CNC(=O)c1nnc(NC(=O)C2CC2)cc1Nc1ccc(C)c(-c2cn(C3CN(Cc4cccc(C#N)n4)C3)nn2)c1OC [Compound 268] | 0.01 to 10 | 500 to 5000 | 500 to 5000 |  |  | 
8 | CNC(=O)c1nnc(NC(=O)C2CC2)cc1Nc1cccc(-c2ccc(C(=O)N(Cc3cccn(C)c3=O)CC(F)F)nc2)c1OC [Compound 16] |  |  |  | 0.01 to 10 | 500 to 5000 | 5000 to 100000
9 | CNC(=O)c1nnc(NC(=O)C2CC2)cc1Nc1cccc(-c2ccc(C(=O)N3CCc4cnn(C)c4C3)nc2)c1OC [Compound 120] |  |  |  | 0.01 to 10 | 5000 to 100000 | 5000 to 100000
10 | CNC(=O)c1nnc(NC(=O)C2CC2)cc1Nc1cccc(-c2cnc(C(=O)N(C)Cc3cn(C)nc3C)c(F)c2)c1OC [Compound 172] |  |  |  | 0.01 to 10 | 50 to 500 | 50 to 500
11 | CNC(=O)c1nnc(NC(=O)OC2CC2)cc1Nc1cccc(-c2cnn(C3CN(Cc4cccc(C#N)n4)C3)c2)c1OC [Compound 364] | 0.01 to 10 | 50 to 500 | 50 to 500 |  |  | 
12 | CNC(=O)c1nnc(NC(=O)C2CC2)cc1Nc1cccc(-c2ccc(C(=O)N(C)C[C@H]3CCS(=O)(=O)C3)nc2)c1OC (single isomer, unassigned) [Compound 207] | 0.01 to 10 | 5000 to 100000 | 5000 to 100000 |  |  | 
13 | CNC(=O)c1nnc(NC(=O)C2CC2)cc1Nc1cccc(-c2cnn([C@H]3CCN(Cc4cccc(C#N)n4)C3)c2)c1OC [Compound 319] | 0.01 to 10 | 50 to 500 | 50 to 500 |  |  | 
14 | CNC(=O)c1nnc(NC(=O)C2CC2)cc1Nc1cccc(-c2ccc(C(=O)N(C)Cc3ccc(OC)cc3)nc2)c1OC [Compound 94] |  |  |  | 0.01 to 10 | 500 to 5000 | 500 to 5000
15 | CNC(=O)c1nnc(NC(=O)C2CC2)cc1Nc1cccc(-c2cnn(C3CN(Cc4ncccn4)C3)c2)c1OC [Compound 70] |  |  |  | 0.01 to 10 | 500 to 5000 | 500 to 5000
16 | CNC(=O)c1nnc(NC(=O)C2CC2)cc1Nc1cccc(-c2cn([C@@H]3CN(Cc4cccc(C#N)n4)[C@H]3C)nn2)c1OC (racemic) [Compound 214] | 0.01 to 10 | 50 to 500 | 50 to 500 |  |  | 
17 | CNC(=O)c1nnc(NC(=O)C2CC2)cc1Nc1cccc(-c2cnn(C3CN(Cc4cccn(C(F)F)c4=O)C3)c2)c1OC [Compound 251] | 0.01 to 10 | 50 to 500 | 50 to 500 |  |  | 
18 | CNC(=O)c1nnc(NC(=O)C2CC2)cc1Nc1cccc(-c2ccc(C3CN(Cc4ccn(C)n4)C3)nc2)c1OC [Compound 263] | 10 to 50 | 5000 to 100000 | 5000 to 100000 |  |  | 
19 | CNC(=O)c1nnc(NC(=O)C2CC2)cc1Nc1cccc(-c2cnn(C3CN(Cc4nccs4)C3)c2)c1OC [Compound 122] |  |  |  | 0.01 to 10 | 50 to 500 | 50 to 500
20 | CNC(=O)c1nnc(NC(=O)C2CC2)cc1Nc1cccc(-c2cnn(C3CN(Cc4cccc(C(O)C(C)C)n4)C3)c2)c1OC (stereo not drawn) [Compound 308] | 10 to 50 | 50 to 500 | 50 to 500 |  |  | 
21 | CNC(=O)c1nnc(NC(=O)C2CC2)cc1Nc1cccc(-c2cnc(C3CN(Cc4ccccn4)C3)nc2)c1OC [Compound 325] | 0.01 to 10 | 5000 to 100000 | 5000 to 100000 |  |  | 

Row | SMILES | Kd [1] [nM] | IC50 [2, 4] [nM] | IC50 [3, 4] [nM] | Kd ([1]; SPR, JAK2 JH2 domain) [nM] | IC50 ([2]; TF1 JAK2 V617F) [nM] | IC50 ([3]; TF1 JAK2 V617F) [nM]
22 | CNC(=O)c1nnc(NC(=O)C2CC2)cc1Nc1nccc(-c2ccc(C(=O)N(C)Cc3cc(C#N)ccn3)nc2)c1OC [Compound 240] | 0.01 to 10 | 50 to 500 | 500 to 5000 |  |  | 
23 | CNC(=O)c1nnc(NC(=O)C2CC2)cc1Nc1cccc(-c2cnn(C3CN(Cc4cccc(C(C)(C)COC)n4)C3)c2)c1OC [Compound 351] | 0.01 to 10 | 500 to 5000 | 500 to 5000 |  |  | 
24 | CNC(=O)c1nnc(NC(=O)C2CC2)cc1Nc1cccc(-c2ccc(C(=O)N(C)Cc3c(C)nn(C)c3Cl)nc2)c1OC [Compound 197] | 0.01 to 10 | 50 to 500 | 50 to 500 |  |  | 
25 | CNC(=O)c1nnc(NC(=O)C2CC2)cc1Nc1cccc(-c2ccc(C(=O)N(C)Cc3ccc(OC(F)F)cc3)nc2)c1OC [Compound 85] |  |  |  | 0.01 to 10 | 500 to 5000 | 500 to 5000
26 | CNC(=O)c1nnc(NC(=O)C2CC2)cc1Nc1cccc(-c2cnn(C3CN(Cc4cccc(C5COC5)n4)C3)c2)c1OC [Compound 343] | 0.01 to 10 | 50 to 500 | 50 to 500 |  |  | 
27 | CNC(=O)c1nnc(NC(=O)C2CC2)cc1Nc1cccc(-c2ccc(C3CN(Cc4ccc(Cl)cn4)C3)nc2)c1OC [Compound 388] | 50 to 500 | 5000 to 100000 | 500 to 5000 |  |  | 
28 | CNC(=O)c1nnc(NC(=O)C2CC2)cc1Nc1cccc(-c2cnn(C3CN(Cc4cccc(C(=O)N5CCC5)n4)C3)c2)c1OC [Compound 355] | 0.01 to 10 | 50 to 500 | 10 to 50 |  |  | 
29 | CNC(=O)c1nnc(NC(=O)C2CC2)cc1Nc1cccc(-c2cnn(C3CN(Cc4cc([N+](=O)[O-])ccn4)C3)c2)c1OC [Compound 295] | 0.01 to 10 | 50 to 500 | 50 to 500 |  |  | 
30 | CNC(=O)c1nnc(NC(=O)C2CC2)cc1Nc1cccc(-c2ccc(C(=O)N(C)Cc3nccc(C#N)c3F)nc2)c1OC [Compound 154] |  |  |  | 0.01 to 10 | 5000 to 100000 | 5000 to 100000
31 | CNC(=O)c1nnc(NC(=O)C2CC2)cc1Nc1cccc(-c2cnn([C@@H]3CN(Cc4cccnn4)[C@H]3C)c2)c1OC (stereo in doubt) [Compound 323] | 0.01 to 10 | 500 to 5000 | 500 to 5000 |  |  | 
32 | CNC(=O)c1nnc(NC(=O)C2CC2)cc1Nc1cccc(-c2ccc(C(=O)N(C)[C@H](C)c3nc(C)no3)nc2)c1OC (single isomer, unassigned) [Compound 65] |  |  |  | 0.01 to 10 | 500 to 5000 | 500 to 5000
33 | CNC(=O)c1cnc(NC(=O)C2CC2)cc1Nc1cccc(-c2ccc(C(=O)N(C)Cc3cc(C#N)ccn3)nc2)c1OC [Compound 176] |  |  |  | 0.01 to 10 | 500 to 5000 | 50 to 500
34 | CNC(=O)c1nnc(NC(=O)C2CC2)cc1Nc1cccc(-c2ccc(C(=O)N(C)Cc3ccc(N(C)C)nc3)nc2)c1OC [Compound 93] |  |  |  | 10 to 50 | 500 to 5000 | 500 to 5000
35 | CNC(=O)c1nnc(NC(=O)C2CC2)cc1Nc1cccc(-c2ccc(C(=O)N(C)C(C)c3nc(C)no3)nc2)c1OC (stereo not drawn) [Compound 50] |  |  |  | 0.01 to 10 | 5000 to 100000 | 5000 to 100000
36 | CNC(=O)c1nnc(NC(=O)C2CC2)cc1Nc1cccc(-c2cnn(C3CN(Cc4cccnc4C#N)C3)c2)c1OC [Compound 212] | 0.01 to 10 | 50 to 500 | 50 to 500 |  |  | 
37 | CNC(=O)c1nnc(NC(=O)C2CC2)cc1Nc1cccc(-c2cnn(C3CN(Cc4cccc(S(C)(=O)=O)n4)C3)c2)c1OC [Compound 304] | 0.01 to 10 | 50 to 500 | 50 to 500 |  |  | 
38 | CNC(=O)c1nnc(NC(=O)C2CC2)cc1Nc1cccc(-c2ccc(C(=O)N(C)C[C@@H]3CCCC3(F)F)cc2)c1OC (single isomer, unassigned) [Compound 208] | 0.01 to 10 | 5000 to 100000 | 5000 to 100000 |  |  | 
39 | CNC(=O)c1nnc(NC(=O)C2CC2)cc1Nc1cccc(-c2ccc(C(=O)N(C)Cc3cccnn3)nc2)c1OC [Compound 45] |  |  |  | 0.01 to 10 | 500 to 5000 | 500 to 5000
40 | CCOc1ccccc1CN(C)C(=O)c1ccc(-c2cccc(Nc3cc(NC(=O)C4CC4)nnc3C(=O)NC)c2OC)cn1 [Compound 83] |  |  |  | 0.01 to 10 | 500 to 5000 | 500 to 5000
41 | CNC(=O)c1nnc(NC(=O)C2CC2)cc1Nc1ccc(C)c(-c2cnc(C(=O)N(C)Cc3ccn(C)n3)c(F)c2)c1OC [Compound 47] |  |  |  | 0.01 to 10 | 500 to 5000 | 500 to 5000
42 | CNC(=O)c1nnc(NC(=O)C2CC2)cc1Nc1cccc(-c2cnc(C(=O)N(C)Cc3cn(C)nc3C(F)(F)F)nc2)c1OC [Compound 64] |  |  |  | 0.01 to 10 | 500 to 5000 | 50 to 500
